Assay results from patent US20200253978A1, “HETEROCYCLICS AS INHIBITORS OF FIBROBLAST GROWTH FACTOR RECEPTOR” (ADVENT PHARMA CO. LTD., priority 2017, published 2020).

Experiments:
[1] = target: T1, BaF3 cells expressing Tel-FGFR-4 and luciferase (Homo sapiens, UniProt P22455); assay: BaF3 cellular growth inhibition assay, Tel-FGFR-4 and luciferase (Bright-Glo); format: cell-based; details: BaF3 Tel-FGFR-4 cells, 2 days incubation, 50% growth inhibition vs DMSO
T1 construct: Luciferase is co-expressed as a viability reporter and is not part of the key; P41212 (Transcription factor ETV6)
T1 sequence (P22455 467-755 limits assumed): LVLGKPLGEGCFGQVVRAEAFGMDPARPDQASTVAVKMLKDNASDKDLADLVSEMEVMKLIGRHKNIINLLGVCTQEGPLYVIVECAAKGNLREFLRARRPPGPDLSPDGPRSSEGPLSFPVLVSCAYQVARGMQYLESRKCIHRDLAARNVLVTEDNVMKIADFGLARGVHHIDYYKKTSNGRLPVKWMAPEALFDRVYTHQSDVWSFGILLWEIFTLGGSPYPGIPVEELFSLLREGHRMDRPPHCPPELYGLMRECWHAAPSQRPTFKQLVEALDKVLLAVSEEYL
Method: (§1) Compounds' inhibitory activities against FGFR-4 or FGFR-1 were measured in BaF3 cells expressing Tel-FGFR-4 and luciferase or Tel-FGFR-1 and luciferase, whose growth was dependent on FGFR-4 or FGFR-1 kinase but independent of IL-3. The cells were plated in 384-well plates in RPMI1640 with 10% FBS. Compounds were added as 11-point dilutions. Cell viability was determined by Bright-Glo luciferase assay (Promega) after cells were incubated with compounds for 2 days. The IC50 value was determined as the concentration for 50% growth inhibition compared to DMSO treated cells (A: IC50<0.1 μM; B: IC50 between 0.1 μM and 1 μM; C: IC50 between 1 μM and 10 μM).

[2] = target: T2, BaF3 cells expressing Tel-FGFR-1 and luciferase (Homo sapiens, UniProt P11362); assay: BaF3 cellular growth inhibition assay, Tel-FGFR-1 and luciferase (Bright-Glo); format: cell-based; details: BaF3 Tel-FGFR-1 cells, 2 days incubation, 50% growth inhibition vs DMSO; numeric bounds
T2 construct: Luciferase is co-expressed as a viability reporter and is not part of the key; P41212 (Transcription factor ETV6)
T2 sequence (P11362 478-767 limits assumed): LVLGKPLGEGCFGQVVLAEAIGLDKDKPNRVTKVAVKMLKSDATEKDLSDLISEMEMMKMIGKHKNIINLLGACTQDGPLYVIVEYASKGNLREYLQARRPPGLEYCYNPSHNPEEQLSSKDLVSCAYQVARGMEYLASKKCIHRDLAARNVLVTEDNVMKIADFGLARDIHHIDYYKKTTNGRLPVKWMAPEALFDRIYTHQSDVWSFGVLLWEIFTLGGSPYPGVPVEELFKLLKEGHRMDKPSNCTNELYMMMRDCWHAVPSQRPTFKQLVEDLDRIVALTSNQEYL
Method: as §1

Compound | IC50 [1] | IC50 [2]
C=CC(=O)Nc1cc(N2CCN(CC)CC2)ccc1Nc1cc2cc(C(=O)Nc3c(F)c(OC)cc(OC)c3F)oc2cn1 [Example 32, 5-((2-acrylamido-4-(4-ethylpiperazin-1-yl)phenyl)amino)-N-(2,6-difluoro-3,5-dimethoxyphenyl)furo[2,3-c]pyridine-2-carboxamide] | 100 to 1000 nM | > 3300 nM
CCN1CCN(c2ccc(Nc3cc4cc(C(=O)c5c(F)c(OC)cc(OC)c5F)oc4cn3)c(NC(=O)/C=C\Cl)c2)CC1 [Example 33, (Z)-3-chloro-N-(2-((2-(2,6-difluoro-3,5-dimethoxybenzoyl)furo[2,3-c]pyridin-5-yl)amino)-5-(4-ethylpiperazin-1-yl)phenyl)acrylamide] | < 100 nM | > 3300 nM
C=CC(=O)N[C@H]1CCOC[C@H]1Nc1ncc2oc(C(O)c3c(F)c(OC)cc(OC)c3F)cc2n1 (stereo partly drawn) [Example 34, N-((3S,4S)-3-((6-((2,6-difluoro-3,5-dimethoxyphenyl)(hydroxy)methyl)furo[3,2-d]pyrimidin-2-yl)amino)tetrahydro-2H-pyran-4-yl)acrylamide] | 1000 to 10000 nM | > 10000 nM
C=CC(=O)N[C@H]1CCOC[C@H]1Nc1ncc2oc(C(=O)c3c(F)c(OC)cc(OC)c3F)cc2n1 [Example 35, N-((3S,4S)-3-((6-(2,6-difluoro-3,5-dimethoxybenzoyl)furo[3,2-d]pyrimidin-2-yl)amino)tetrahydro-2H-pyran-4-yl)acrylamide] | < 100 nM | > 10000 nM
C=CC(=O)Nc1cc(N2CCN(CC)CC2)ccc1Nc1cc2c(O)c(C(=O)c3c(F)c(OC)cc(OC)c3F)oc2cn1 [Example 36, N-(2-((2-(2,6-difluoro-3,5-dimethoxybenzoyl)-3-hydroxyfuro[2,3-c]pyridin-5-yl)amino)-5-(4-ethylpiperazin-1-yl)phenyl)acrylamide] | 1000 to 10000 nM | > 10000 nM
C=CC(=O)N[C@H]1CCOC[C@H]1Nc1cc2cc(-c3c(Cl)c(OC)cc(OC)c3Cl)oc2cn1 [Example 37, N-((3S,4S)-3-((2-(2,6-dichloro-3,5-dimethoxyphenyl)furo[2,3-c]pyridin-5-yl)amino)tetrahydro-2H-pyran-4-yl)acrylamide] | 100 to 1000 nM | > 10000 nM
